Three molecules from publication PMC6420026, “TLR9-mediated dendritic cell activation uncovers mammalian ganglioside species with specific ceramide backbones that activate invariant natural killer T cells” (PLoS Biology, 2019) can be followed below.

Where two headings read alike, the source gives them in different places.

In the assay the target is T1, mouse CD1d (mCD1d) (Mus musculus, UniProt P11609).
T1 construct: gene Cd1d1
T1 sequence (P11609 22-305 limits assumed): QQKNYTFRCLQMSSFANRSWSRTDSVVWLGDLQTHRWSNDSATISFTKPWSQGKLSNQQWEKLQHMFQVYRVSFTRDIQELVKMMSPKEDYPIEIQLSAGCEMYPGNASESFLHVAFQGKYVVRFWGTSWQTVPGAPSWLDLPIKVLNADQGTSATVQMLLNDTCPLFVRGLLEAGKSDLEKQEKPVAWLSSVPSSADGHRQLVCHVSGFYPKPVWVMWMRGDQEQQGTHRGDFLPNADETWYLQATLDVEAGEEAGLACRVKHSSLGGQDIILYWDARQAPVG
T1 sequence (P01887 21-119 partner): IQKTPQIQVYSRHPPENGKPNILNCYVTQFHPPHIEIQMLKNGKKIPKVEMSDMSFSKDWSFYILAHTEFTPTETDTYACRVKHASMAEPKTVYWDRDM
In words: microscale thermophoresis. Type of assay: binding.

As to `CCCCCCCC/C=C\CCCCCCCCCCCCCC(=O)N[C@@H](CO[C@@H]1O[C@H](CO)[C@@H](O[C@@H]2O[C@H](CO)[C@H](O)[C@H](O[C@]3(C(=O)O)C[C@H](O)[C@@H](NC(C)=O)[C@H]([C@H](O)[C@@H](CO)O[C@]4(C(=O)O)C[C@H](O)[C@@H](NC(C)=O)[C@H]([C@H](O)[C@H](O)CO)O4)O3)[C@H]2O)[C@H](O)[C@H]1O)[C@H](O)/C=C/CCCCCCCCCCCCC` [C24:1 GD3], the affinity (NT-647-labelled mCD1d 125 nM, PBS 25 mM, 0.05% Tyloxapol, up to 5% DMSO, 1:1 fit, labelled protein), expressed as Kd, was 69.1 ± 1.5 µM.

With `CCCCCCCC/C=C\CCCCCCCCCCCCCC(=O)N[C@@H](CO[C@@H]1O[C@H](CO)[C@@H](O)[C@H](O)[C@H]1O)[C@H](O)/C=C/CCCCCCCCCCCCC` [C24:1 β-GlcCer], the Kd (usually the concentration at which binding is half-saturated) was determined as 2540 µM.

As for `CCCCCCCC/C=C\CCCCCCCCCCCCCC(=O)N[C@@H](CO[C@@H]1O[C@H](CO)[C@@H](O[C@@H]2O[C@H](CO)[C@H](O)[C@H](O[C@]3(C(=O)O)C[C@H](O)[C@@H](NC(C)=O)[C@H]([C@H](O)[C@H](O)CO)O3)[C@H]2O)[C@H](O)[C@H]1O)[C@H](O)/C=C/CCCCCCCCCCCCC` [C24:1 GM3], binding was characterised by a dissociation constant (Kd) of 102 ± 2.3 µM.
